# According to the pKa sets of Baltruschat and Czodrowski (2020):
# Conditions: acidic group
row,SMILES,pKa
1,CC/C=C/Cc1nc(C(=O)[O-])cn1[C@H](C(=O)[O-])C(C)(C)S,10.2
2,Cc1ccc2[nH]c(CO)nc2c1,11.5
3,C[C@@]12CC(=O)N[C@]1(CCC(=O)[O-])C(=O)NC2=O,8.1
4,COc1ccc(CC(=O)O)cc1,4.36
5,CC(=O)c1ccccc1C(=O)O,4.15
6,Oc1cc(-c2ccccc2)n(-c2ccccc2)n1,12.9
7,CCC[Si](C)(CCC)CC(=O)O,5.65
8,C[NH+]1C[C@H](C(=O)O)C=C2c3cccc4[nH]cc(c34)C[C@@H]21,3.25
9,Cc1ccc(OC(O)(CBr)c2ccccc2)cc1 (centres undefined),11.2
10,O=C(O)CCS,4.38
11,O=[N+]([O-])c1cc(Br)c(O)c(Br)c1,3.7
12,CC[NH2+]CCCC(=O)O,3.92
13,Ic1nnn[nH]1,2.85
14,CNS(=O)(=O)C(F)(F)F,7.56
15,O=[N+]([O-])c1cccc(S)c1,5.24
16,OCc1ccc(O)cc1,9.82
17,Cc1cccc(Br)c1C(=O)O,2.71
18,CCCCO,15.6
19,O=C(O)Cn1c2ccccc2c2ccccc21,3.55
20,CCCC[NH2+]CC(=O)O,2.32
21,NC(=O)CS(=O)(=O)NC(N)=O,5.05
22,COC(=O)CC(=O)c1cccnc1,8.98
23,OC[C@@H]1O[C@H]([n+]2ccc(NO)nc2O)[C@@H](O)[C@H]1O,2.26
24,N#Cc1c(-c2nc3ccccc3s2)c(=O)oc2cc(O)ccc12,6.38
25,O=c1cc(-c2ccc(O)cc2)ss1,8.27
26,Cc1cc(O)nn1-c1ccccc1C(=O)N1CCCCC1,12.4

row,SMILES,pKa
1,Cc1cc(C=O)c(O)c(C=O)c1,6.2
2,O=C1CC(=O)NC(=S)[N-]1,10.7
3,C[NH+](C)CCCCNC(=O)/C=N/O,8.81
4,CC(=N\O)/C(CN(C)C)=N\O,10.6
5,O=C(O)C(CO)c1ccccc1 (centres undefined),4.23
6,Nc1ccc(S(=O)(=O)Nc2ccn(-c3ccccc3[N+](=O)[O-])n2)cc1,7
7,CC(C)(C)C(=O)C(=O)O,2.3
8,CCCCCP(=O)(O)CCCCC,3.23
9,CCN(CC)C(=S)NC(=O)c1ccccc1,8.45
10,CC(=S)NCc1ccccc1,13
11,CCN(CC)CC(=N\[O-])/C(C)=N/O,11.9
12,Clc1c(Cl)c(Cl)c2[nH]nnc2c1Cl,4.52
13,[NH3+]C(CC(=O)O)C(=O)NC(CC(=O)O)C(=O)O (centres undefined),2.7
14,Cc1cccc([NH3+])c1C(=O)O,3.2
15,Cc1cccc(Cl)c1O,8.7
16,Cc1ccc(O)c2[n+]1CCS2,4.7
17,Oc1cc[nH+]c2cccnc12,2.85
18,CCC(C)NC(C#N)=C(C#N)C#N (centres undefined),6.35
19,CC(C[Si](C)(C)CCl)C(=O)O (centres undefined),5.32
20,O=[PH]([O-])C(NCc1cccnc1)c1ccccc1O (centres undefined),12
21,COCCO,14.9
22,Oc1ccccc1I,8.4
23,NNC(=O)C(F)(F)C1(F)OC(F)(F)C(F)(F)C1(F)F (centres undefined),8.26
24,Cc1cc(N(C)C)cc[n+]1O,4.37
25,C[N+](C)(C)c1cc([N+](=O)[O-])ccc1O,4.35
26,CC(O)c1cccc(O)c1CO (centres undefined),9.9

row,SMILES,pKa
1,Cc1cccc(NS(=O)(=O)c2ccc(N)cc2)[n+]1[O-],5.9
2,O=C(O)[C@@H]1CC[C@H](C(=O)O)S1,3.34
3,COP(=O)([O-])NS(=O)(=O)c1ccccc1,6.25
4,CC(C)C[C@H](N)C(N)=O,7.84
5,O=C1/C(=C2\C=CC=CN2)C(=O)c2cc([N+](=O)[O-])ccc21,9.26
6,CC[Si](C)(C)CCCC(=O)O,5.02
7,C/C(=C\Cl)C(=O)O,4.03
8,CC(C)(C(N)=O)S(=O)(=O)NC(N)=O,5.15
9,Cc1cc2nc[nH]c2cc1C,12.5
10,CC1(C)CCC(=O)N1O,8.7
11,O=C(O)c1ccc([N+](=O)[O-])o1,2.06
12,Nc1ccc(S(=O)(=O)Nc2ccn(-c3cccc([N+](=O)[O-])c3)n2)cc1,7.03
13,O/N=C/c1cccnc1,10.3
14,O=C(O)c1ncccn1,2.85
15,Oc1c(Cl)cc(Cl)cc1C[NH+]1CCOCC1,5.67
16,CO[C@H]1C[C@@H]1C(=O)O,4.47
17,CSc1ncnc2nc[nH]c12,8.74
18,[NH3+][C@H]1CC[C@@H](C(=O)O)CC1,4.6
19,O=S(=O)([O-])c1cc(O)c2cn[nH]c2c1,8.1
20,O=C(O)c1c(Cl)cccc1[N+](=O)[O-],1.41
21,O=C(O)Cc1c[nH]c2ccccc12,4.39
22,O=C(Oc1ccc([N+](=O)[O-])cc1)C1c2ccccc2-c2ccccc21,9.9
23,O=C([O-])c1cc(O)c(O)c(C(=O)O)[o+]1,1.8
24,NS(=O)(=O)c1ccc(Cl)cc1,9.5
25,CCC1(CC)C(=O)NC(=O)N(C(=O)c2ccccc2OC)C1=O,6.54
26,O=C(O)c1ccccc1-c1ccccc1,3.46

# Same assay, conditions: basic group
row,SMILES,pKa
1,CC/C=C/Cc1nc(C(=O)[O-])cn1[C@H](C(=O)[O-])C(C)(C)S,6.4
2,Cc1ccc2[nH]c(CO)nc2c1,5.64
3,CC(C)[C@@]12CN[C@@H](C(=O)[O-])[C@@H]1CC(=O)O2,7.8
4,C#CC(C)Nc1ccccc1 (centres undefined),3.25
5,N#CC(CCN1CCCCC1)(c1ccccc1)c1ccccc1,8.07
6,NCC=C(Cl)Cl,9.3
